{"source": "patent US10953028B2", "about": "“Method of treating heterotopic ossification” (THE REGENTS OF THE UNIVERSITY OF MICHIGAN, priority 2015, dated 2021)", "key": {"[1]": {"test_system": "caACVR1fl/fl mice injected with cardiotoxin and Ad.cre", "settings": "mouse, in vivo"}, "burn/tenotomy mice": {"test_system": "burn/tenotomy mice", "test": "Burn/tenotomy trauma-induced HO model (microCT, histology, immunostaining)", "format": "in vivo, mouse", "settings": "9 weeks"}}, "note": "“And” between values parts separate entries of the source, which are not always exact repeats. Equal values may be shown once."}
{"smiles": "CO[C@H]1C[C@@H]2CC[C@@H](C)[C@@](O)(O2)C(=O)C(=O)N2CCCC[C@H]2C(=O)O[C@H]([C@H](C)C[C@@H]2CC[C@@H](O)[C@H](OC)C2)CC(=O)[C@H](C)/C=C(\\C)[C@@H](O)[C@@H](OC)C(=O)[C@H](C)C[C@H](C)/C=C/C=C/C=C/1C", "note": "[rapamycin]", "values": [{"measurement": "total HO normalized volume", "setting": "[1]", "result": 0.0}, {"measurement": "total HO volume", "setting": "[1]", "result": "0.00 mm^3 and 0.0 mm^3"}, {"measurement": "de novo (soft tissue) HO volume", "setting": "burn/tenotomy mice; rapamycin 5 mg/kg i.p. every other day, control 1.60 mm^3", "result": 0.81, "unit": "mm^3"}, {"measurement": "de novo (soft tissue) HO normalized volume", "setting": "burn/tenotomy mice; rapamycin 5 mg/kg i.p., control = 1.0", "result": 0.51}]}
